# System: rats with hybrid hyperlipidemia
# Test: Blood lipids in hybrid hyperlipidemia rat model
# Type: in vivo, SD rat
# Conditions: 3.3 mg/kg, compared with the modeling control group, at each time point
# Procedure: Grouping: After quarantine, the animals were randomized into a negative control group of 10 animals and modeling groups of the rest. After the modeling groups were given modeling feed for 2 weeks, the animals were anesthetized by isoflurane inhalation without fasting. The blood was collected from orbital venous sinus and was centrifuged at 3000 rpm for 10 min to separate the serum. The total cholesterol (TC), triglyceride (TG), low-density lipoprotein cholesterol (LDL-C) and high-density lipoprotein cholesterol (HDL-C) levels were determined. Animals with lower TG levels were eliminated. […]
# 2.8.1 High-fat and high-cholesterol modeling feed: A maintenance feed containing 20.0% of sucrose, 5% of lard, 1.0% of cholesterol, 0.1% of sodium cholate, appropriate amounts of casein, calcium bicarbonate, powdered stone and the like. Other than crude fat, in the modeling feed, moisture, crude protein, crude fat, crude fiber, crude ash, calcium, phosphorus and calcium:phosphorus all satisfied the national standard for maintenance feed. The feed was provided by Guangdong Medical Laboratory Animal Center. […]
# 2.8.6.3 Blood lipids: After 2, 4, 7 and 9 weeks of treatment (d14, d28, d52 and d65), the animals were anesthetized by isoflurane inhalation without fasting. […] The TC, TG, LDL-C and HDL-C levels were determined. […]
compound,measurement,value
"CC(C)c1c(C(=O)Nc2ccccc2)c(-c2ccccc2)c(-c2ccc(F)cc2)n1CC[C@@H](O)C[C@@H](O)CC(=O)O [atorvastatin calcium tablet, atorvastatin calcium]",effect on reducing blood lipids (summary),no significant effect on reducing the blood lipids

# From patent US11918620B2, “Traditional Chinese medicine composition, and preparation method therefor and application thereof” (Suzhou Regen-PharmaTech Co., Ltd., priority 2020, dated 2024)
